What is called IC50 is the point on the concentration scale where inhibition reaches its midpoint. A higher IC50 goes with lower potency.

Chain of IRAK4 (Q9NWZ3 whole entry): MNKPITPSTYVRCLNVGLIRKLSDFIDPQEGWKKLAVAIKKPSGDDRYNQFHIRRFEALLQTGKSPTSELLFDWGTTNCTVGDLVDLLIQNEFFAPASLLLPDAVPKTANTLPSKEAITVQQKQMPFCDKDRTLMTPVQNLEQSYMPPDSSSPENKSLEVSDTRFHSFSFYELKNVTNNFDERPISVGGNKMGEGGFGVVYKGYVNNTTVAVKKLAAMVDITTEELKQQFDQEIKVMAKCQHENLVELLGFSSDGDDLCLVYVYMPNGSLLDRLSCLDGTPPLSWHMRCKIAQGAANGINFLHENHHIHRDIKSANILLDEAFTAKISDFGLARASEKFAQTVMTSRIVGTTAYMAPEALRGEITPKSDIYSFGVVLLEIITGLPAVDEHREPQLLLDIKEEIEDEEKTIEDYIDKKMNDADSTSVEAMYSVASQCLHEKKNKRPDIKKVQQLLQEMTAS

The assay addresses IRAK4 (Homo sapiens (Human), UniProt Q9NWZ3). In words: In vitro IRAK4 phosphorylation activity assay. Conditions: [γ-33P]-ATP, myelin basic protein substrate, 40 minutes at room temperature; categories. It counts as biochemical. As for the experimental part:
In vitro IRAK4 analysis was performed using N-(1H-imidazol-2-yl)benzamide compounds according to the present invention. All compounds were prepared by dissolving in DMSO. N-(1H-imidazol-2-yl)benzamide compound according to the present invention and other elements for the reaction were added to an assay well. In the standard Kinase Profiler service the preincubation step between the N-(1H-imidazol-2-yl)benzamide compound and kinase was not performed before the reaction.
To the positive control well, all reactants except for the N-(1H-imidazol-2-yl)benzamide compound according to the present invention were added, and DMSO was added to remove the solvent effect. A known control inhibitor having the following structure was added to the blank wells to inhibit kinase activity and establish a base-line.
IRAK4 was incubated with 8 mM MOPS pH 7.0, 0.2 mM EDTA, 0.33 mg/mL myelin basic protein, 10 mM magnesium acetate and [γ-33P]-ATP (specific activity approx. 500 cpm/pmol, concentration as required). The reaction was initiated by the addition of the MgATP mix. After incubation for 40 minutes at room temperature, the reaction was stopped by the addition of 3% phosphoric acid solution. 10 μL of the reaction was then spotted onto a P30 filtermat and washed three times for 5 minutes in 75 mM phosphoric acid and once in methanol prior to drying and scintillation counting.
The results are shown in Table 26 below, where the phosphorylation activity of IC50 values for IRAK4 is shown in categories (A: <50 nM, B: 50-100 nM, C: >100 nM).
Turning to `O=C(Nc1nc(CCCCCN2CCOCC2)cn1-c1ccccc1)c1cccc(-c2cn[nH]c2)c1` [Example 119, N-(4-(5-morpholinopentyl)-1-phenyl-1H-imidazol-2-yl)-3-(1H-pyrazol-4-yl)benzamide], the IC50 is < 50 nM.

Take `Cn1cc(-c2cccc(C(=O)Nc3nc(CCCC(=O)NCCN4CCCCC4)cn3-c3ccccc3)c2)cn1` [Example 159, 3-(1-methyl-1H-pyrazol-4-yl)-N-(4-(4-oxo-4-((2-(piperidin-1-yl)ethyl)amino)butyl)-1-phenyl-1H-imidazol-2-yl)benzamide]: the IC50 was < 50 nM.

For `CN(C)CCCNC(=O)CCCc1cn(-c2ccccc2)c(NC(=O)c2cccc(-c3cnn(C)c3)c2)n1` [Example 163, N-(4-(4-((3-(dimethylamino)propyl)amino)-4-oxobutyl)-1-phenyl-1H-imidazol-2-yl)-3-(1-methyl-1H-pyrazol-4-yl)benzamide], the IC50 was 50 to 100 nM.

As to `O=C(CCc1cn(CC2CCCCC2)c(NC(=O)c2cccc(-c3cn[nH]c3)c2)n1)Nc1ccccc1` [Example 295, N-(1-(cyclohexylmethyl)-4-(3-oxo-3-(phenylamino)propyl)-1H-imidazol-2-yl)-3-(1H-pyrazol-4-yl)benzamide], the IC50 is > 100 nM.

The compound `O=C(CCc1cn(-c2ccccc2)c(NC(=O)c2cccc(-c3cn[nH]c3)c2)n1)NN1CCCCC1` [Example 8, N-(4-(3-oxo-3-(piperidin-1-ylamino)propyl)-1-phenyl-1H-imidazol-2-yl)-3-(1H-pyrazol-4-yl)benzamide] had a half-maximal inhibitory concentration (IC50) of 50 to 100 nM.

As to `Cn1cc(-c2cccc(C(=O)Nc3nc(CCCC(=O)Nc4ccn(C)n4)cn3-c3ccccc3)c2)cn1` [Example 190, N-(4-(4-((1-methyl-1H-pyrazol-3-yl)amino)-4-oxobutyl)-1-phenyl-1H-imidazol-2-yl)-3-(1-methyl-1H-pyrazol-4-yl)benzamide], the IC50 is < 50 nM.

Consider `C[Si](C)(C)CCOCn1cc(-c2cccc(C(=O)Nc3nc(CCCC(=O)NC4CC4)cn3-c3ccccc3)c2)cn1` [Example 67, N-(4-(4-(cyclopropylamino)-4-oxobutyl)-1-phenyl-1H-imidazol-2-yl)-3-(1-((2-(trimethylsilyl)ethoxy)methyl)-1H-pyrazol-4-yl)benzamide], for which the concentration for half-maximal inhibition (IC50) was > 100 nM.

`O=C(Nc1nc(CCCO)cn1-c1ccccc1)c1cccc(-c2cn[nH]c2)c1` [Example 105, N-(4-(3-hydroxypropyl)-1-phenyl-1H-imidazol-2-yl)-3-(1H-pyrazol-4-yl)benzamide]: the concentration for half-maximal inhibition (IC50) is < 50 nM.

For `C[C@@H]1CCC[C@H](C)N1C(=O)CCCCCc1cn(-c2ccccc2)c(NC(=O)c2cccc(-c3cn[nH]c3)c2)n1` [Example 97, N-(4-(6-((2R,6S)-2,6-dimethylpiperidin-1-yl)-6-oxohexyl)-1-phenyl-1H-imidazol-2-yl)-3-(1H-pyrazol-4-yl)benzamide], the IC50 was < 50 nM.

With `O=C(CCCc1cn(-c2ccccc2)c(NC(=O)c2cccc(-c3cn[nH]c3)c2)n1)Nc1ccccc1` [Example 52, N-(4-(4-oxo-4-(phenylamino)butyl)-1-phenyl-1H-imidazol-2-yl)-3-(1H-pyrazol-4-yl)benzamide], the IC50 was < 50 nM.

On to `O=C(Nc1nc(CCCCNC(=O)C2CC2)cn1-c1ccccc1)c1cccc(-c2ccc3[nH]ncc3c2)c1` [Example 261, N-(4-(4-(cyclopropanecarboxamido)butyl)-1-phenyl-1H-imidazol-2-yl)-3-(1H-indazol-5-yl)benzamide], for which the IC50 was < 50 nM.

As to `O=C(O)CCc1cn(-c2ccccc2)c(NC(=O)c2cccc(-c3cn[nH]c3)c2)n1` [Example 7, 3-(2-(3-(1H-pyrazol-4-yl)benzamido)-1-phenyl-1H-imidazol-4-yl)propanoic acid], the half-maximal inhibitory concentration (IC50) is < 50 nM.

As to `CN(C)C1CCN(C(=O)CCCCCc2cn(-c3ccccc3)c(NC(=O)c3cccc(-c4ccc5scnc5c4)c3)n2)CC1` [Example 291, 3-(benzo[d]thiazol-5-yl)-N-(4-(6-(4-(dimethylamino)piperidin-1-yl)-6-oxohexyl)-1-phenyl-1H-imidazol-2-yl)benzamide], the half-inhibitory concentration (IC50) was > 100 nM.

Regarding `Nc1ccc(-c2cccc(C(=O)Nc3nc(CCCC(=O)N4CCCCC4)cn3-c3ccccc3)c2)cn1` [Example 273, 3-(6-aminopyridin-3-yl)-N-(4-(4-oxo-4-(piperidin-1-yl)butyl)-1-phenyl-1H-imidazol-2-yl)benzamide], the concentration for half-maximal inhibition (IC50) is < 50 nM.

Take `CN1CCN(C(=O)CCCc2cn(-c3ccccc3)c(NC(=O)c3cccc(-c4ccc(N)nc4)c3)n2)CC1` [Example 274, 3-(6-aminopyridin-3-yl)-N-(4-(4-(4-methylpiperazin-1-yl)-4-oxobutyl)-1-phenyl-1H-imidazol-2-yl)benzamide]: the IC50 was < 50 nM.

As to `COC[C@H]1CCCN1C(=O)CCCCCc1cn(-c2ccccc2)c(NC(=O)c2cccc(-c3cn[nH]c3)c2)n1` [Example 101, (R)—N-(4-(6-(2-(methoxymethyl)pyrrolidin-1-yl)-6-oxohexyl)-1-phenyl-1H-imidazol-2-yl)-3-(1H-pyrazol-4-yl)benzamide], the concentration for half-maximal inhibition (IC50) was < 50 nM.

Turning to `Cn1cc(-c2cccc(C(=O)Nc3nc(CCCC(=O)N4CCN(c5ccccc5)CC4)cn3-c3ccccc3)c2)cn1` [Example 188, 3-(1-methyl-1H-pyrazol-4-yl)-N-(4-(4-oxo-4-(4-phenylpiperazin-1-yl)butyl)-1-phenyl-1H-imidazol-2-yl)benzamide], the concentration for half-maximal inhibition (IC50) is < 50 nM.

`CNC(=O)Cc1cn(-c2ccccc2)c(NC(=O)c2cccc(-c3ccc4[nH]ncc4c3)c2)n1` [Example 243, 3-(1H-indazol-5-yl)-N-(4-(2-(methylamino)-2-oxoethyl)-1-phenyl-1H-imidazol-2-yl)benzamide] returned an IC50 of 50 to 100 nM.

On to `COC[C@H]1CCCN1C(=O)CCc1cn(-c2ccccc2)c(NC(=O)c2cccc(-c3cn[nH]c3)c2)n1` [Example 20, (R)—N-(4-(3-(2-(methoxymethyl)pyrrolidin-1-yl)-3-oxopropyl)-1-phenyl-1H-imidazol-2-yl)-3-(1H-pyrazol-4-yl)benzamide], for which the half-inhibitory concentration (IC50) was > 100 nM.

Regarding `O=C(Nc1nc(CCCCCCO)cn1-c1ccccc1)c1cccc(-c2cn[nH]c2)c1` [Example 121, N-(4-(6-hydroxyhexyl)-1-phenyl-1H-imidazol-2-yl)-3-(1H-pyrazol-4-yl)benzamide], the half-inhibitory concentration (IC50) was < 50 nM.

As to `CN1CCN(C(=O)CCCc2cn(-c3ccccc3)c(NC(=O)c3cccc(-c4ccc5ncsc5c4)c3)n2)CC1` [Example 280, 3-(benzo[d]thiazol-6-yl)-N-(4-(4-(4-methylpiperazin-1-yl)-4-oxobutyl)-1-phenyl-1H-imidazol-2-yl)benzamide], the IC50 was < 50 nM.

In turn, `COC[C@@H]1CCCN1NC(=O)CCc1cn(-c2ccccc2)c(NC(=O)c2cccc(-c3cn[nH]c3)c2)n1` [Example 13, (S)—N-(4-(3-((2-(methoxymethyl)pyrrolidin-1-yl)amino)-3-oxopropyl)-1-phenyl-1H-imidazol-2-yl)-3-(1H-pyrazol-4-yl)benzamide] returned a half-inhibitory concentration (IC50) of 50 to 100 nM.

For the compound `O=C(Nc1nc(CCCCCCNC(=O)C2CC2)cn1-c1ccccc1)c1cccc(-c2ccc3[nH]ncc3c2)c1` [Example 262, N-(4-(6-(cyclopropanecarboxamido)hexyl)-1-phenyl-1H-imidazol-2-yl)-3-(1H-indazol-5-yl)benzamide], the half-inhibitory concentration (IC50) was < 50 nM.

As for `O=C(Nc1nc(CCCN2CCSCC2)cn1-c1ccccc1)c1cccc(-c2cn[nH]c2)c1` [Example 110, N-(1-phenyl-4-(3-thiomorpholinopropyl)-1H-imidazol-2-yl)-3-(1H-pyrazol-4-yl)benzamide], the IC50 was < 50 nM.

For the compound `COC(=O)CCc1cn(-c2ccccc2)c(NC(=O)c2cccc(-c3cn[nH]c3)c2)n1` [Example 18, methyl 3-(2-(3-(1H-pyrazol-4-yl)benzamido)-1-phenyl-1H-imidazol-4-yl)propanoate], the IC50 is < 50 nM.

Consider `CNC(=O)CCCc1cn(-c2ccccc2)c(NC(=O)c2cccc(-c3cn[nH]c3)c2)n1` [Example 60, N-(4-(4-(methylamino)-4-oxobutyl)-1-phenyl-1H-imidazol-2-yl)-3-(1H-pyrazol-4-yl)benzamide], for which the half-inhibitory concentration (IC50) was < 50 nM.

On to `CN(C(=O)CCCc1cn(-c2ccccc2)c(NC(=O)c2cccc(-c3cn[nH]c3)c2)n1)C1CC1` [Example 71, N-(4-(4-(cyclopropyl(methyl)amino)-4-oxobutyl)-1-phenyl-1H-imidazol-2-yl)-3-(1H-pyrazol-4-yl)benzamide], for which the IC50 was < 50 nM.

With `O=C(Nc1nc(CCCCCC(=O)N2CCCCC2)cn1-c1ccccc1)c1cccc(-c2cn[nH]c2)c1` [Example 93, N-(4-(6-oxo-6-(piperidin-1-yl)hexyl)-1-phenyl-1H-imidazol-2-yl)-3-(1H-pyrazol-4-yl)benzamide], the half-maximal inhibitory concentration (IC50) is < 50 nM.

With `Cn1cc(-c2cccc(C(=O)Nc3nc(CCCC(=O)NCCCO)cn3-c3ccccc3)c2)cn1` [Example 165, N-(4-(4-((3-hydroxypropyl)amino)-4-oxobutyl)-1-phenyl-1H-imidazol-2-yl)-3-(1-methyl-1H-pyrazol-4-yl)benzamide], the IC50 was < 50 nM.

Consider `C[C@@H]1CCC[C@H](C)N1C(=O)CCCCc1cn(-c2ccccc2)c(NC(=O)c2cccc(-c3cn[nH]c3)c2)n1` [Example 81, N-(4-(5-((2R,6S)-2,6-dimethylpiperidin-1-yl)-5-oxopentyl)-1-phenyl-1H-imidazol-2-yl)-3-(1H-pyrazol-4-yl)benzamide], for which the concentration for half-maximal inhibition (IC50) is < 50 nM.

The record behind these values is patent publication US12534452B2, “N-(1H-imidazol-2-yl)benzamide compound and pharmaceutical composition comprising the same as active ingredient” (KAINOS MEDICINE, INC., priority 2019, dated 2026).
